Assay results from US20210363152A1, “AMINOAZINE AMIDES” (Hoffmann-La Roche Inc., priority 2018, published 2021).

Biological target: T1, Autotaxin enzyme (ATX) (Homo sapiens, UniProt Q13822)
T1 construct: purchased Echelon Biosciences, Inc. E-4000
Assay: In vitro ATX assay (enzymatic ATX inhibition, LPC 14:0 substrate, choline oxidase/HRP absorbance readout)
Type: biochemical
Conditions: 0.3 mM LPC 14:0, 37° C., 4 hours, absorbance 555 nm
Description: • Assay buffer: 100 mM Tris-HCl, pH 9.0, 500 mM NaCl, 5 mM MgCl2, 30 μM CoCl2, 0.05% Triton X-100 • Assay buffer II: 4.5 mM 4-AAP, 2.7 mM TOOS, 21.2 U/mL HRP, 3 U/mL CO, In 50 mM Tris-HCl pH 8.0, 4.5 mM MgCl2
A compound preparation plate (Nunc 249944) was prepared by adding 30 mM stock solution (in DMSO) of test compound and performing a serial full-log dilution down to 30 nM. Two μL/well were transferred from the first compound prep plate to a compound dilution plate (Corning, 3641) and 198 μL assay buffer I was added for a […].
A 10 ng/mL solution of ATX was prepared by diluting in assay buffer I, and 80 μL/well were added to the assay plate (Corning, 3641); negative control wells contained 80 μL/well assay buffer I only (no ATX). Ten μL/well from the compound dilution plate (containing serially diluted test compound or DMSO) were added to the assay plate, which was then incubated at 37° C. for 15 minutes. A solution of LPC 14:0 was prepared in assay buffer I at 3 mM and 10 μl/well were added to the assay plate, for a final concentration of 0.3 mM LPC, and returned to 37° C. incubator for 4 hours. After 4 hour incubation, 100 μL/well of assay buffer II was added to all wells of the assay plate. The plate was incubated at RT for 15 minutes, prior to reading on FlexStation in absorbance mode, 555 nm. Results in the enzymatic ATX inhibition assay are provided for compounds of formula (I). An IC50 value of “A” is less than 100 nM, “B” is equal to or greater than 100 nM but less than 1 μM, “C” is equal to or greater than 1 μM.

SMILES	IC50 [µM]
COC[C@H]1CCCN1C(=O)c1cnc(NCc2cc(OC(F)(F)F)cc(C3CC3)c2)nc1 [Example 95, (R)-(2-((3-cyclopropyl-5-(trifluoromethxoy)benzyl)ami-no)pyrimidin-5-yl)(2-(methoxymethyl)pyrrolidin-1-yl)methanone]	0.1 to 1
COC[C@@H]1CCN1C(=O)c1cnc(NC2Cc3ccc(Cl)cc3C2)nc1 (stereo partly shown) [Example 57]	< 0.1
CC1(C)CCN1C(=O)c1cnc(NC2Cc3ccc(Cl)cc3C2)nc1 (stereo not shown) [Example 41]	< 0.1
O=C(c1cnc(NCc2cc(OC(F)(F)F)cc(C3CC3)c2)nc1)N1CCc2ccncc21 [Example 98, (2-((3-cyclopropyl-5-(trifluoromethoxy)benzyl)ami-no)pyrimidin-5-yl)(2,3-dihydro-1H-pyrrolo[2,3-c]pyridin-1-yl)methanone]	< 0.1
CC1(O)CN(C(=O)c2cnc(NCc3cc(OC(F)(F)F)cc(C4CC4)c3)nc2)C1 [Example 87, (2-((3-cyclopropyl-5-(trifluoromethoxy)benzyl)ami-no)pyrimidin-5-yl)(3-hydroxy-3-methylazetidin-1-yl)methanone]	0.1 to 1
O=C(c1cnc(NCc2cc(OC(F)(F)F)cc(C3CC3)c2)nc1)N1CCC12CN(C1CCC1)C2 [Example 144, (6-Cyclobutyl-1,6-diazaspiro[3.3]heptan-1-yl)(2-((3-cyclopropyl-5-(trifluoromethoxy)benzyl)amino)pyrimidin-5-yl)methanone]	< 0.1
COCC1CN(C(=O)c2cnc(NCc3cc(OC(F)(F)F)cc(C4CC4)c3)nc2)C1 [Example 99, (2-((3-cyclopropyl-5-(trifluoromethoxy)benzyl)ami-no)pyrimidin-5-yl)(3-(methoxymethyl)azetidin-1-yl)methanone]	0.1 to 1
O=C(c1cnc(NCc2cc(OC(F)(F)F)cc(C3CC3)c2)nc1)N1CC2(C1)CS(=O)(=O)C2 [Example 106, (2-((3-cyclopropyl-5-(trifluoromethoxy)benzyl)ami-no)pyrimidin-5-yl)(2,2-dioxido-2-thia-6-azaspiro[3.3]heptan-6-yl)methanone]	0.1 to 1
CC1CC(C)N1C(=O)c1cnc(NCc2cc(OC(F)(F)F)cc(C3CC3)c2)nc1 (single isomer, unassigned) [Example 120, (2-((3-Cyclopropyl-5-(trifluoromethoxy)-benzyl)amino)pyrimidin-5-yl)(2,4-dimethylazetidin-1-yl)methanone]	< 0.1
O=C(c1cnc(NC2Cc3ccc(Cl)cc3C2)nc1)N1CCC12CCCOC2 (stereo not shown) [Example 48]	< 0.1
O=C(c1cnc(N[C@@H]2Cc3ccc(Cl)cc3C2)nc1)N1CCC12CCOC2 (stereo partly drawn) [Example 132, (2-(((R)-5-Chloro-2,3-dihydro-1H-inden-2-yl)amino)pyrimidin-5-yl)(6-oxa-1-azaspiro[3.4]octan-1-yl)methanone]	< 0.1
CC(C)(O)C1CCN1C(=O)c1cnc(N[C@@H]2Cc3ccc(Cl)cc3C2)nc1 (stereo partly drawn) [Example 131, (2-(((R)-5-Chloro-2,3-dihydro-1H-inden-2-yl)amino)pyrimidin-5-yl)(2-(2-hydroxypropan-2-yl)azetidin-1-yl)methanone]	< 0.1
O=C(c1ccc(NCc2cccc(OC(F)(F)F)c2)nc1)N1CCC12COC2 [Example 73, 6-Oxa-1-azaspiro[3.3]heptan-1-yl(6-((3-(trifluoromethoxy)benzyl)amino)pyridin-3-yl)methanone]	≥ 1
O=C(c1ccc(NC2Cc3ccc(Cl)cc3C2)nc1)N1CCC12COC2 (stereo not shown) [Example 78, (6-((5-Chloro-2,3-dihydro-1H-inden-2-yl)amino)pyridin-3-yl)(6-oxa-1-azaspiro[3.3]heptan-1-yl)methanone]	0.1 to 1
O=C(c1cnc(NCc2cc(OC(F)(F)F)cc(C3CC3)c2)nc1)N1CCC1 [Example 81, azetidin-1-yl(2-((3-cyclopropyl-5-(trifluoro-methoxy)benzyl)amino)-pyrimidin-5-yl)methanone]	< 0.1
CC(C)c1cc(CNc2ncc(C(=O)N3CCC3C)cn2)cc(OC(F)(F)F)c1 (single isomer, unassigned) [Example 69, (2-((3-Isopropyl-5-(trifluoromethoxy)benzyl)amino)pyrimidin-5-yl)(2-methylazetidin-1-yl)methanone]	< 0.1
CC1CCN1C(=O)c1cnc(NC2Cc3ccc(Cl)cc3C2)nc1 (stereo not shown) [Example 44]	< 0.1
CS(=O)(=O)CCN1CC2(CCN2C(=O)c2cnc(NCc3cc(OC(F)(F)F)cc(C4CC4)c3)nc2)C1 [Example 150, (2-((3-Cyclopropyl-5-(trifluoromethoxy)benzyl)amino)pyrimidine-5-yl) (6-(2-(methylsulfonyl)ethyl)-1,6-diazaspiro[3.3]heptan-1-yl)methanone]	< 0.1
CC1(O)CC2(CCN2C(=O)c2cnc(N[C@@H]3Cc4ccc(Cl)cc4C3)nc2)C1 (stereo partly drawn) [Example 134, (R)-(2-((5-Chloro-2,3-dihydro-1H-inden-2-yl)amino)pyrimidin-5-yl)(6-hydroxy-6-methyl-1-azaspiro[3.3]heptan-1-yl)methanone]	< 0.1

Now from value to compound:

IC50 [µM]	SMILES
< 0.1	O=C(c1cnc(NCc2cc(OC(F)(F)F)cc(C3CC3)c2)nc1)N1CCC12CN(C1COC1)C2 [Example 145, (2-((3-Cyclopropyl-5-(trifluoromethoxy)benzyl)amino)pyrimidin-5-yl) (6-(oxetan-3-yl)-1,6-diazaspiro[3.3]heptan-1-yl)methanone]
< 0.1	O=C(c1cnc(NCc2cc(OC(F)(F)F)cc(C3CC3)c2)nc1)N1CCC12CCCOC2 (single isomer, unassigned) [Example 122, (2-((3-Cyclopropyl-5-(trifluoromethoxy)benzyl)amino)-pyrimidin-5-yl)(6-oxa-1-azaspiro[3.5]nonan-1-yl)methanone]
< 0.1	O=C(c1cnc(NC2Cc3ccc(F)cc3C2)nc1)N1CCC12COC2 (stereo not shown) [Example 42]
< 0.1	CCOc1cc(CNc2ncc(C(=O)N3CCC3C(C)(C)O)cn2)cc(OC(F)(F)F)c1 (stereo not shown) [Example 66]
< 0.1	CCOc1cc(CNc2ncc(C(=O)N3CCC34COC4)cn2)cc(C2CC2)c1 [Example 67]
< 0.1	CCN1CC2(CCN2C(=O)c2cnc(NCc3cc(OC(F)(F)F)cc(C4CC4)c3)nc2)C1 [Example 143, (2-((3-Cyclopropyl-5-(trifluoromethoxy)benzyl)amino)pyrimidin-5-yl)(6-ethyl-1,6-diazaspiro[3.3]heptan-1-yl)methanone]
< 0.1	CCOc1cc(CNc2ncc(C(=O)N3CCC34COC4)cn2)cc(OC(F)(F)F)c1 [Example 31]
0.1 to 1	O=C(c1cnc(NCc2cc(F)cc(OC(F)(F)F)c2)nc1)N1CCC12COC2 [Example 26]
0.1 to 1	O=C(c1cnc(N[C@H]2Cc3ccc(Br)cc3C2)nc1)N1CCC12COC2 [Example 61]
< 0.1	CCOc1cc(CNc2ncc(C(=O)N3CCC34COC4)cn2)cc(OCC)c1 [Example 53]
0.1 to 1	O=C(c1cnc(NCc2cccc(S(F)(F)(F)(F)F)c2)nc1)N1CCC12COC2 [Example 24]
< 0.1	O=C(c1cnc(NCc2cc(OCC3CC3)cc(OC(F)(F)F)c2)nc1)N1CCC12COC2 [Example 27]
< 0.1	O=C(c1cnc(NCc2cc(OC(F)(F)F)cc(C3CC3)c2)nc1)N1CCC12CCC2 [Example 79, (2-((3-Cyclopropyl-5-(trifluoromethoxy)benzyl)amino)pyrimidin-5-yl)(1-azaspiro[3.3]heptan-1-yl)methanone]
< 0.1	CC(C)c1cc(CNc2ccc(C(=O)N3CCC34COC4)cn2)cc(OC(F)(F)F)c1 [Example 76, (6-((3-Isopropyl-5-(trifluoromethoxy)benzyl)amino)pyridin-3-yl)(6-oxa-1-azaspiro[3.3]heptan-1-yl)methanone]
< 0.1	CC(C)Oc1cc(CNc2ncc(C(=O)N3CCC34COC4)cn2)cc(OC(F)(F)F)c1 [Example 28]
< 0.1	O=C(c1cnc(NC2Cc3ccc(Br)cc3C2)nc1)N1CCC12COC2 (stereo not shown) [Example 43]
< 0.1	O=C(c1cnc(NCc2cc(C3CC3)cc(C(F)(F)F)c2)nc1)N1CCC12COC2 [Example 36]
< 0.1	CC(C)N1CC2(CCN2C(=O)c2cnc(NCc3cc(OC(F)(F)F)cc(C4CC4)c3)nc2)C1 [Example 147, (2-((3-Cyclopropyl-5-(trifluoromethoxy)benzyl)amino)pyrimidin-5-yl) (6-isopropyl-1,6-diazaspiro[3.3]heptan-1-yl)methanone]
0.1 to 1	CCc1ccc2c(c1)CC(Nc1ncc(C(=O)N3CCC34COC4)cn1)C2 (stereo not shown) [Example 126, (2-((5-Ethyl-2,3-dihydro-1H-inden-2-yl)amino)pyrimidin-5-yl) (6-oxa-1-azaspiro[3.3]heptan-1-yl)methanone]
0.1 to 1	O=C(c1cnc(NCc2cc(Cl)cc(Cl)c2)nc1)N1CCC12COC2 [Example 50]
< 0.1	O=C(c1cnc(NCc2cc(OC(F)(F)F)cc(C3CC3)c2)nc1)N1CCC12CS(=O)(=O)C2 [Example 107, (2-((3-cyclopropyl-5-(trifluoromethoxy)benzyl)ami-no)pyrimidin-5-yl)(6,6-dioxido-6-thia-1-azaspiro[3.3]heptan-1-yl)-methanone]
